{"source": "patent US9259406B2", "about": "“Antitumor combinations containing antibodies recognizing specifically CD38 and melphalan” (SANOFI, priority 2008, dated 2016)", "key": {"[1]": {"system": "human multiple myeloma RPMI-8226"}, "[2]": {"system": "human multiple myeloma LP1"}, "murine CD38": {"target": "T1, murine CD38 (Mus musculus, UniProt P56528)", "T1 sequence (P56528 1-304)": "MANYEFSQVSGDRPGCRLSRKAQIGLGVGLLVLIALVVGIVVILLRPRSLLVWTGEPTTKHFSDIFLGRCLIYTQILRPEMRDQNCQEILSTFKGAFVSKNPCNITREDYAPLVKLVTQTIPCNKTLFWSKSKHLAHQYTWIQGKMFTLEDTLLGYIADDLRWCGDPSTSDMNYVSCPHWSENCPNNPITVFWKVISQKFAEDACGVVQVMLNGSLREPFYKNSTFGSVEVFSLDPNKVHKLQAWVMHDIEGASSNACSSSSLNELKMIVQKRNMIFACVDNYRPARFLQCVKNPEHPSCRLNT", "test": "cross-reactivity of the antibody with murine CD38", "assay_type": "binding"}, "[3]": {"settings": "melphalan IV 3.8 mg/kg/inj (total 15.2), days 16, 19, 22, 25"}, "[4]": {"settings": "melphalan IV 6.2 mg/kg/inj (total 24.8), days 16, 19, 22, 25"}, "[5]": {"settings": "melphalan IV 10.0 mg/kg/inj (total 40.0), days 16, 19, 22, 25"}, "[6]": {"settings": "melphalan alone IV, total injected dose 40 mg/kg"}, "[7]": {"settings": "melphalan IV 3.8 mg/kg/inj (total 15.2), days 12, 15, 18, 21"}, "[8]": {"settings": "melphalan IV 6.2 mg/kg/inj (total 24.8), days 12, 15, 18, 21"}, "[9]": {"settings": "melphalan IV 10.0 mg/kg/inj (total 40.0), days 12, 15, 18, 21"}, "[10]": {"settings": "melphalan IV 16.1 mg/kg/inj (total 48.3), treatments stopped on day 18"}, "[11]": {"settings": "hu38SB19 IV 40.0 mg/kg/inj (total 160.0), days 12, 15, 18, 21"}}, "note": "Values joined by “and” are separate entries in the source; they are usually repeats but may differ in a detail not shown here. Equal values may be shown once. “Also recorded” adds a separate entry of the source. Read-outs that look alike come from different tables or passages of the source."}
{"compound": "N[C@@H](Cc1ccc(N(CCCl)CCCl)cc1)C(=O)O", "note": "[melphalan]", "values": [{"measurement": "Comments", "setting": "[1]; [3]", "value": "Moderately active"}, {"measurement": "Drug death", "setting": "[1]; [3]", "value": "0/5"}, {"measurement": "T-C in days (1000 mg)", "setting": "[1]; [3]", "value": 8.5, "unit": "days"}, {"measurement": "log10 cell kill", "setting": "[1]; [3]", "value": 0.8}, {"measurement": "% BWC at nadir (day)", "setting": "[1]; melphalan IV 3.8 mg/kg/inj (total 15.2), days 16, 19, 22, 25, nadir day 17", "value": "−1.2", "unit": "%"}, {"measurement": "Comments", "setting": "[1]; [4]", "value": "Active"}, {"measurement": "Drug death", "setting": "[1]; [4]", "value": "0/5"}, {"measurement": "T-C in days (1000 mg)", "setting": "[1]; [4]", "value": 9.5, "unit": "days"}, {"measurement": "log10 cell kill", "setting": "[1]; [4]", "value": 0.9}, {"measurement": "% BWC at nadir (day)", "setting": "[1]; melphalan IV 6.2 mg/kg/inj (total 24.8), days 16, 19, 22, 25, nadir day 32", "value": "−3.5", "unit": "%"}, {"measurement": "Drug death", "setting": "[1]; [5]", "value": "0/5"}, {"measurement": "T-C in days (1000 mg)", "setting": "[1]; [5]", "value": 20.0, "unit": "days"}, {"measurement": "log10 cell kill", "setting": "[1]; [5]", "value": 1.9}, {"measurement": "Comments", "setting": "[1]; melphalan IV 10.0 mg/kg/inj (total 40.0), days 16, 19, 22, 25, 10 mg/kg", "value": "HNTD, active"}, {"measurement": "% BWC at nadir (day)", "setting": "[1]; melphalan IV 10.0 mg/kg/inj (total 40.0), days 16, 19, 22, 25, nadir day 26", "value": "−12.2", "unit": "%"}, {"measurement": "Comments", "setting": "[1]; melphalan IV 16.1 mg/kg/inj (total 32.2), days 16, 19", "value": "Toxic"}, {"measurement": "Drug death", "setting": "[1]; melphalan IV 16.1 mg/kg/inj (total 32.2), days 16, 19, 16.1 mg/kg", "value": "3 and 3/5"}, {"measurement": "% BWC at nadir (day)", "setting": "[1]; melphalan IV 16.1 mg/kg/inj (total 32.2), days 16, 19, nadir day 26", "value": "−33.4", "unit": "%"}, {"measurement": "highest nontoxic dose (HNTD)", "setting": "[1]; [6]", "value": 10, "unit": "mg/kg/inj"}, {"measurement": "Comments", "setting": "[2]; [7]", "value": "Moderately active"}, {"measurement": "T-C in days (1000 mg)", "setting": "[2]; [7]", "value": 4.1, "unit": "days"}, {"measurement": "log10 cell kill gross", "setting": "[2]; [7]", "value": 0.8}, {"measurement": "% BWC at nadir (day)", "setting": "[2]; melphalan IV 3.8 mg/kg/inj (total 15.2), days 12, 15, 18, 21, nadir day 22", "value": "+7.0%"}, {"measurement": "Comments", "setting": "[2]; [8]", "value": "Highly active"}, {"measurement": "T-C in days (1000 mg)", "setting": "[2]; [8]", "value": 17.4, "unit": "days"}, {"measurement": "log10 cell kill gross", "setting": "[2]; [8]", "value": 3.5}, {"measurement": "% BWC at nadir (day)", "setting": "[2]; melphalan IV 6.2 mg/kg/inj (total 24.8), days 12, 15, 18, 21, nadir day 24", "value": "−3.0", "unit": "%"}, {"measurement": "T-C in days (1000 mg)", "setting": "[2]; [9]", "value": 46.5, "unit": "days"}, {"measurement": "log10 cell kill gross", "setting": "[2]; [9]", "value": 9.3}, {"measurement": "% BWC at nadir (day)", "setting": "[2]; melphalan IV 10.0 mg/kg/inj (total 40.0), days 12, 15, 18, 21, nadir day 24", "value": "−14.6", "unit": "%"}, {"measurement": "Comments", "setting": "[2]; [10]", "value": "Toxic"}, {"measurement": "drug-related deaths", "setting": "[2]; [10]", "value": "4/5"}, {"measurement": "% BWC at nadir (day)", "setting": "[2]; melphalan IV 16.1 mg/kg/inj (total 48.3), treatments stopped on day 18, nadir day 22", "value": "−33.6", "unit": "%"}, {"measurement": "body weight loss at nadir", "setting": "[2]; melphalan alone 16.1 mg/kg/injection, nadir on day 22", "value": 33.6, "unit": "%"}, {"measurement": "HNTD", "setting": "[2]; [6]", "value": 10, "unit": "mg/kg/inj"}]}
{"compound": "hu38SB19: humanized version of anti-CD38 monoclonal antibody 38SB19; heavy chain CDRs SEQ ID NOS: 13, 81, 15, light chain CDRs SEQ ID NOS: 16, 17, 18", "values": [{"measurement": "cross-reactivity with murine CD38", "setting": "murine CD38", "value": "lack of cross-reactivity"}, {"measurement": "tolerability", "setting": "[1]; mouse, in vivo, 40 mg/kg", "value": "well tolerated"}, {"measurement": "% BWC at nadir (day)", "setting": "[1]; mouse, in vivo, iv, 40 mg/kg", "value": "+5.3%"}, {"measurement": "Comments", "setting": "[1]; mouse, in vivo, iv, 40 mg/kg", "value": "not active; also recorded: HDT-inactive"}, {"measurement": "Drug death", "setting": "[1]; mouse, in vivo, iv, 40 mg/kg", "value": "0/5"}, {"measurement": "T-C in days (1000 mg)", "setting": "[1]; mouse, in vivo, iv, 40 mg/kg", "value": 5.2, "unit": "days"}, {"measurement": "log10 cell kill", "setting": "[1]; mouse, in vivo, iv, 40 mg/kg", "value": 0.5}, {"measurement": "T-C in days (1000 mg)", "setting": "[2]; [11]", "value": 1.1, "unit": "days"}, {"measurement": "log10 cell kill gross", "setting": "[2]; [11]", "value": 0.2}, {"measurement": "Comments", "setting": "[2]; hu38SB19 IV 40.0 mg/kg/inj (total 160.0), days 12, 15, 18, 21, 40 mg/kg", "value": "not active; also recorded: HDT-inactive"}, {"measurement": "tolerability", "setting": "[2]; mouse, in vivo, 40 mg/kg", "value": "well tolerated"}, {"measurement": "% BWC at nadir (day)", "setting": "[2]; mouse, in vivo, iv, 40 mg/kg", "value": "+15.9%"}]}
